Experimental data reported in DBAASP.
Values after ≈ are worked out from the molar mass of the structure shown. One block for each compound: values may come before it.

Tests used:
Experiment in all cases: ≥ marks a high value that may be exact or a test limit, other limits are often not marked, values filed in µg/mL are converted to µM
Botrytis cinerea = system: Botrytis cinerea
[1] = system: Escherichia coli ATCC 11775
[2] = system: Candida albicans ATCC 10231
[3] = system: Staphylococcus aureus ATCC 12600
Bacillus megaterium Bm11 = system: Bacillus megaterium Bm11
[4] = system: Staphylococcus aureus Cowan 1
[5] = system: Escherichia coli ATCC 25922
Staphylococcus capitis 1 = system: Staphylococcus capitis 1
[6] = system: Yersinia pseudotuberculosis YPIII
Salmonella typhimurium = system: Salmonella typhimurium
Escherichia coli = system: Escherichia coli
Proteus mirabilis = system: Proteus mirabilis
Serratia marcescens = system: Serratia marcescens
Shigella dysenteriae = system: Shigella dysenteriae
Bacillus subtilis = system: Bacillus subtilis
Candida albicans = system: Candida albicans
Micrococcus luteus = system: Micrococcus luteus
Pseudomonas aeruginosa = system: Pseudomonas aeruginosa
Klebsiella pneumoniae = system: Klebsiella pneumoniae
Saccharomyces cerevisiae = system: Saccharomyces cerevisiae
[7] = system: Pseudomonas aeruginosa ATCC 15692
[8] = system: Staphylococcus aureus ATCC 25923
[9] = system: Escherichia coli ATCC 25726
[10] = system: Pseudomonas aeruginosa ATCC 27853
[11] = system: Acinetobacter baumannii NM8
[12] = system: Klebsiella pneumoniae ATCC 700603
[13] = system: Staphylococcus epidermidis RP62A
[14] = system: Staphylococcus epidermidis RP62A/1
[15] = system: Stenotrophomonas maltophilia B32/4
[16] = system: Candida albicans ATCC 90028
[17] = system: Bacillus megaterium KCTC 1096
[18] = system: Pseudomonas aeruginosa KCTC 1637
[19] = system: Staphylococcus aureus KCTC 1621
[20] = system: Escherichia coli KCTC 1682
Proteus vulgaris = system: Proteus vulgaris
[21] = system: Bacillus subtilis KCTC 1918

MIC [9]: ≥ 32 µM
MIC [10]: 128 µM (≈ 208 µg/mL)
MIC [11]: ≥ 32 µM
MIC [12]: 128 µM (≈ 208 µg/mL)
MIC [13]: 16 µM (≈ 26 µg/mL)
MIC [8]: 16 µM (≈ 26 µg/mL)
MIC [14]: 8 µM (≈ 13 µg/mL)
MIC [15]: ≥ 64 µM
MIC [16]: ≥ 32 µM
SMILES: CC[C@H](C)[C@H](N)C(=O)N[C@@H](CC(C)C)C(=O)NCC(=O)N[C@@H](CCCCN)C(=O)N[C@@H](CC(C)C)C(=O)N[C@@H](CC(C)C)C(=O)N[C@@H](CO)C(=O)N[C@H](C(=O)N[C@@H](C)C(=O)N[C@@H](C)C(=O)NCC(=O)N[C@@H](CC(C)C)C(=O)N[C@@H](CC(C)C)C(=O)N[C@@H](CCCCN)C(=O)N[C@@H](CC(N)=O)C(=O)N[C@@H](CC(C)C)C(N)=O)[C@@H](C)O [ILGKLLSTAAGLLKNL]

MIC [9]: ≥ 256 µM
MIC [10]: 256 µM (≈ 405 µg/mL)
MIC [5]: 150 µM (≈ 237 µg/mL)
MIC [11]: ≥ 64 µM
MIC [12]: 256 µM (≈ 405 µg/mL)
MIC [13]: ≥ 64 µM
MIC [8]: 50 µM (≈ 79.1 µg/mL)
MIC [14]: ≥ 32 µM
MIC [15]: ≥ 128 µM
MIC [16]: ≥ 64 µM
SMILES: CC[C@H](C)[C@H](N)C(=O)N[C@@H](CC(C)C)C(=O)NCC(=O)N[C@@H](CCCCN)C(=O)N[C@@H](CC(C)C)C(=O)N[C@@H](CC(C)C)C(=O)N[C@@H](CO)C(=O)N[C@H](C(=O)N[C@@H](C)C(=O)N[C@@H](C)C(=O)NCC(=O)N[C@@H](CC(C)C)C(=O)N[C@@H](CC(C)C)C(=O)N[C@@H](CO)C(=O)N[C@@H](CC(N)=O)C(=O)N[C@@H](CC(C)C)C(N)=O)[C@@H](C)O [ILGKLLSTAAGLLSNL]

MIC (Botrytis cinerea): ≥ 200 µM
MIC [1]: ≥ 200 µM
MIC [2]: > 200 µM
MIC [3]: ≥ 200 µM
SMILES: CC[C@H](C)[C@H](NC(=O)[C@@H]1CCCN1C(=O)[C@@H]1CCCN1C(=O)[C@@H](NC(=O)[C@H](Cc1cnc[nH]1)NC(=O)[C@@H](N)C(C)C)C(C)C)C(=O)N[C@H]1CSSC[C@@H](C(=O)N[C@@H](CCCN=C(N)N)C(=O)N[C@@H](CCCCN)C(=O)O)NC(=O)[C@H](CCC(=O)O)NC(=O)[C@H](CCCN=C(N)N)NC(=O)[C@H](Cc2cnc[nH]2)NC(=O)[C@H](CO)NC1=O [VHVPPICSHRECRK]

MIC [17]: 0.78 µM (≈ 1.54 µg/mL)
MIC [18]: 1.56 µM (≈ 3.08 µg/mL)
MIC [19]: 3.12 µM (≈ 6.16 µg/mL)
MIC [20]: 3.12 µM (≈ 6.16 µg/mL)
MIC (Proteus vulgaris): 12.5 µM (≈ 24.7 µg/mL)
MIC [21]: 0.78 µM (≈ 1.54 µg/mL)
SMILES: CC[C@H](C)[C@H](NC(=O)[C@H](CCCCN)NC(=O)[C@H](CCCCN)NC(=O)[C@H](Cc1ccccc1)NC(=O)[C@@H](N)Cc1c[nH]c2ccccc12)C(=O)N1CCC[C@H]1C(=O)N[C@@H](CCCCN)C(=O)N[C@@H](Cc1ccccc1)C(=O)N[C@@H](CC(C)C)C(=O)N[C@@H](Cc1cnc[nH]1)C(=O)N[C@@H](CC(C)C)C(=O)N[C@@H](CC(C)C)C(=O)N[C@@H](CCCCN)C(=O)N[C@@H](CCCCN)C(=O)N[C@@H](Cc1ccccc1)C(N)=O [WFKKIPKFLHLLKKF]

Continued, compound first:

SMILES: CC[C@H](C)[C@H](NC(=O)[C@H](C)N)C(=O)N[C@@H](CC(N)=O)C(=O)N1CCC[C@H]1C(=O)N[C@@H](CCCCN)C(=O)N[C@@H](CO)C(=O)N[C@H](C(=O)N[C@@H](CCC(N)=O)C(=O)N[C@@H](CO)C(=O)N[C@@H](CC(C)C)C(=O)N[C@@H](CC(C)C)C(N)=O)C(C)C [AINPKSVQSLL]
MIC (Botrytis cinerea): ≥ 200 µM
MIC [1]: ≥ 200 µM
MIC [2]: > 200 µM
MIC [3]: ≥ 200 µM

SMILES: CC[C@H](C)[C@H](NC(=O)CNC(=O)[C@H](CO)NC(=O)[C@H](CC(C)C)NC(=O)[C@@H](NC(=O)[C@H](CCCN=C(N)N)NC(=O)CNC(=O)[C@H](C)NC(=O)[C@H](CC(C)C)NC(=O)[C@@H]1CCCN1C(=O)[C@H](CC(C)C)NC(=O)[C@@H](N)Cc1ccccc1)C(C)C)C(=O)N[C@@H](CC(C)C)C(N)=O [FLPLAGRVLSGIL]
MIC (Bacillus megaterium Bm11): 20 µM (≈ 27.1 µg/mL)
MIC [4]: ≥ 40 µM
MIC [5]: > 40 µM
MIC (Staphylococcus capitis 1): ≥ 40 µM
MIC [6]: ≥ 40 µM
MIC [2]: 20 µM (≈ 27.1 µg/mL)

SMILES: CC[C@H](C)[C@H](NC(=O)CNC(=O)[C@H](CO)NC(=O)[C@H](CC(C)C)NC(=O)[C@@H](NC(=O)[C@H](C)NC(=O)CNC(=O)[C@@H](NC(=O)[C@H](CC(C)C)NC(=O)[C@@H]1CCCN1C(=O)[C@H](CC(C)C)NC(=O)[C@@H](N)Cc1ccccc1)[C@@H](C)CC)C(C)C)C(=O)N[C@@H](CC(C)C)C(N)=O [FLPLIGAVLSGIL]
MIC (Bacillus megaterium Bm11): ≥ 40 µM
MIC [4]: ≥ 40 µM
MIC [5]: > 40 µM
MIC (Staphylococcus capitis 1): ≥ 40 µM
MIC [6]: ≥ 40 µM
MIC [2]: > 40 µM

SMILES: CC[C@H](C)[C@H](NC(=O)CN)C(=O)N[C@@H](Cc1ccccc1)C(=O)N[C@@H](CO)C(=O)N[C@@H](CCCCN)C(=O)N[C@@H](CC(C)C)C(=O)N[C@@H](C)C(=O)NCC(=O)N[C@@H](CCCCN)C(=O)N[C@@H](CCCCN)C(=O)N[C@H](C(=O)N[C@@H](CCCCN)C(=O)N[C@@H](CC(N)=O)C(=O)N[C@@H](CC(C)C)C(=O)N[C@@H](CC(C)C)C(=O)N[C@H](C(=O)N[C@@H](CO)C(=O)NCC(=O)N[C@@H](CC(C)C)C(=O)N[C@@H](CCCCN)C(=O)N[C@@H](CC(N)=O)C(=O)N[C@H](C(=O)NCC(=O)N[C@@H](CCCCN)C(=O)N[C@@H](CCC(=O)O)C(=O)N[C@H](C(=O)NCC(=O)N[C@@H](CCSC)C(=O)N[C@@H](CC(=O)O)C(=O)N[C@H](C(=O)N[C@H](C(=O)N[C@@H](CCCN=C(N)N)C(=O)N[C@H](C(=O)NCC(=O)N[C@H](C(=O)N[C@@H](CC(=O)O)C(=O)N[C@H](C(=O)N[C@@H](C)C(=O)NCC(=O)N[C@H]1CSSC[C@@H](C(=O)O)NC(=O)[C@H](CCC(=O)O)NC(=O)CNC(=O)[C@H](CCCCN)NC(=O)[C@H]([C@@H](C)CC)NC(=O)[C@H](CCCCN)NC1=O)[C@@H](C)CC)[C@@H](C)CC)[C@@H](C)O)C(C)C)C(C)C)C(C)C)[C@@H](C)CC)[C@@H](C)CC)[C@@H](C)CC [GIFSKLAGKKIKNLLISGLKNIGKEVGMDVVRTGIDIAGCKIKGEC]
MIC (Salmonella typhimurium): 5.19 µM (≈ 25 µg/mL)
MIC (Escherichia coli): 5.19 µM (≈ 25 µg/mL)
MIC (Proteus mirabilis): ≥ 41.5 µM
MIC (Serratia marcescens): ≥ 41.5 µM
MIC (Shigella dysenteriae): 2.6 µM (≈ 12.5 µg/mL)
MIC (Bacillus subtilis): 1.31 µM (≈ 6.3 µg/mL)
MIC (Candida albicans): 41.5 µM (≈ 200 µg/mL)
MIC (Micrococcus luteus): 1.31 µM (≈ 6.3 µg/mL)
MIC (Pseudomonas aeruginosa): 5.19 µM (≈ 25 µg/mL)
MIC (Klebsiella pneumoniae): 2.6 µM (≈ 12.5 µg/mL)

SMILES: CC[C@H](C)[C@H](NC(=O)[C@H](CC(C)C)NC(=O)[C@H](CCCCN)NC(=O)[C@H](CO)NC(=O)[C@H](C)NC(=O)CNC(=O)[C@H](CCCCN)NC(=O)[C@H](CC(C)C)NC(=O)[C@H](C)NC(=O)[C@H](C)NC(=O)[C@H](CCCCN)NC(=O)[C@H](C)NC(=O)[C@H](CC(C)C)NC(=O)[C@H](CC(C)C)NC(=O)CNC(=O)[C@H](Cc1ccccc1)NC(=O)[C@@H](NC(=O)CN)C(C)C)C(=O)N1CCC[C@H]1C(=O)N[C@@H](Cc1cnc[nH]1)C(=O)N[C@@H](CC(C)C)C(=O)N[C@@H](CC(C)C)C(=O)N1CCC[C@H]1C(=O)N[C@@H](CO)C(=O)N[C@@H](CCCN=C(N)N)C(=O)N[C@@H](CCC(N)=O)C(=O)N[C@@H](CCC(N)=O)C(=O)O [GVFGLLAKAALKGASKLIPHLLPSRQQ]
MIC (Saccharomyces cerevisiae): 16 µM (≈ 45 µg/mL)
MIC [5]: 1 µM (≈ 2.81 µg/mL)
MIC [7]: 5.66 µM (≈ 15.9 µg/mL)
MIC (Micrococcus luteus): 0.5 µM (≈ 1.41 µg/mL)
MIC [8]: 1 µM (≈ 2.81 µg/mL)
